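All cell lines were grown in 96-well plates and treated with compound for 48 hours. Here, GI50 denotes the concentration required for 50% inhibition of growth. TGI: concentration producing complete growth inhibition.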
Columns and labels:
Assay in all cases: inhibition of tumour cell growth, NCI panel, 48 h
[1] = test system: NCI-H460 lung
[2] = test system: OVCAR-5 ovarian
[3] = test system: COLO 205 colon
[4] = test system: SNB-19 CNS
[5] = test system: OVCAR-3 ovarian
[6] = test system: MDA-MB-435
[7] = test system: 786-0 renal
[8] = test system: UO-31 renal
[9] = test system: RXF 393 renal
[10] = test system: HCC-2998 colon

N#CC(C(=O)O)C(c1c(Cl)cccc1Cl)C(C#N)C(=O)O (configuration not stated)
TGI [1]: > 100 µM
TGI [2]: > 100 µM
TGI [3]: > 100 µM
TGI [4]: > 100 µM
TGI [5]: > 100 µM
TGI [6]: > 100 µM
TGI [7]: > 100 µM
TGI [8]: > 100 µM

S=C1SCN(C2CCCCCCCCCCC2)CN1C1CCCCCCCCCCC1
TGI [1]: > 100 µM
TGI [2]: > 100 µM
TGI [9]: > 100 µM
TGI [3]: > 100 µM
TGI [4]: > 100 µM
TGI [5]: > 100 µM
TGI [6]: > 100 µM
TGI [7]: > 100 µM
TGI [8]: > 100 µM

O=C(O)CNC(=O)C1NC(C(F)(F)F)(C(F)(F)F)OC1(C(F)(F)F)C(F)(F)F (configuration not stated)
TGI [1]: > 100 µM
TGI [2]: > 100 µM
TGI [9]: > 100 µM
TGI [3]: > 100 µM
TGI [4]: > 100 µM
TGI [5]: > 100 µM
TGI [6]: > 100 µM
TGI [7]: > 100 µM
TGI [8]: > 100 µM

CC(=O)OC1(C#N)CC2OC1C1N=NN(C(=O)OC(C)(C)C)C21 (configuration not stated)
TGI [1]: > 100 µM
TGI [10]: > 100 µM
TGI [2]: > 100 µM
TGI [9]: > 31.6 µM
TGI [3]: > 100 µM
TGI [4]: > 100 µM
TGI [5]: > 80.6 µM
TGI [7]: > 100 µM
TGI [8]: > 100 µM

COc1c(N2CCN(CN3C(=O)C(=O)c4ccccc43)C(C)C2)c(F)cc2c(=O)c(C(=O)O)cn(C3CC3)c12 (configuration not stated)
GI50 [1]: 43.4 µM
TGI [1]: > 100 µM
GI50 [2]: 13.6 µM
TGI [2]: 99.4 µM
GI50 [9]: > 100 µM
TGI [9]: > 100 µM
GI50 [3]: 66.5 µM
TGI [3]: > 100 µM
GI50 [4]: > 100 µM
TGI [4]: > 100 µM
GI50 [5]: 98.7 µM
TGI [5]: > 100 µM
GI50 [6]: 82.3 µM
TGI [6]: > 100 µM
GI50 [7]: > 100 µM
TGI [7]: > 100 µM
GI50 [8]: > 100 µM
TGI [8]: > 100 µM

Cc1ccc(-c2cc(=O)c3cc(C)c(C)c(C(=O)O)c3o2)cc1[N+](=O)[O-]
TGI [1]: > 100 µM
TGI [2]: > 100 µM
TGI [9]: > 100 µM
TGI [3]: > 100 µM
TGI [4]: > 100 µM
TGI [5]: > 100 µM
TGI [7]: > 100 µM
TGI [8]: > 100 µM

COC(=O)c1ccc(/C=C/S(=O)(=O)c2ccccc2)cc1
TGI [1]: > 100 µM
TGI [2]: > 100 µM
TGI [9]: > 100 µM
TGI [3]: > 100 µM
TGI [4]: > 100 µM
TGI [5]: > 100 µM
TGI [7]: > 100 µM
TGI [8]: > 100 µM

CCCCCN(CCCCC)C(=O)[C@H](CCC(=O)OCc1ccccc1)NC(=O)c1cc2ccccc2[nH]1
TGI [1]: > 100 µM
TGI [10]: > 100 µM
TGI [2]: > 100 µM
TGI [9]: > 100 µM
TGI [3]: > 100 µM
TGI [4]: > 100 µM
TGI [5]: > 100 µM
TGI [7]: > 100 µM
TGI [8]: > 100 µM

CC(CCC(=O)O)c1ccc(Br)cc1 (configuration not stated)
TGI [1]: > 100 µM
TGI [10]: > 100 µM
TGI [2]: > 100 µM
TGI [9]: > 100 µM
TGI [3]: > 100 µM
TGI [4]: > 100 µM
TGI [5]: > 100 µM
TGI [7]: > 100 µM
TGI [8]: > 100 µM

N.N.NCCCCCN.O=C([O-])CC(=O)[O-].O=C([O-])CC(=O)[O-].[Pt+4].[Pt+4]
GI50 [1]: 17.4 µM
TGI [1]: > 100 µM
GI50 [10]: > 100 µM
TGI [10]: > 100 µM
GI50 [2]: > 100 µM
TGI [2]: > 100 µM
GI50 [9]: > 100 µM
TGI [9]: > 100 µM
GI50 [3]: > 100 µM
TGI [3]: > 100 µM
GI50 [4]: > 100 µM
TGI [4]: > 100 µM
GI50 [5]: > 100 µM
TGI [5]: > 100 µM
GI50 [7]: > 100 µM
TGI [7]: > 100 µM
GI50 [8]: > 100 µM
TGI [8]: > 100 µM

N/C(=N\N=C\c1ccc(O)c(O)c1)NO
TGI [1]: > 100 µM
TGI [10]: > 100 µM
TGI [2]: > 100 µM
TGI [9]: > 100 µM
TGI [3]: > 100 µM
TGI [4]: > 100 µM
TGI [5]: > 100 µM
TGI [7]: > 100 µM
TGI [8]: > 100 µM

CC1(C)Oc2ccccc2[N+]([O-])=C1c1ccccc1
TGI [1]: > 100 µM
TGI [10]: > 100 µM
TGI [9]: > 100 µM
TGI [3]: > 100 µM
TGI [4]: > 100 µM
TGI [5]: > 100 µM
TGI [7]: > 100 µM
TGI [8]: > 100 µM

CCOc1ccc(N=Cc2ccc3ccccc3n2)cc1
TGI [1]: > 100 µM
TGI [10]: > 100 µM
TGI [2]: > 100 µM
TGI [9]: > 100 µM
TGI [3]: > 100 µM
TGI [4]: > 100 µM
TGI [5]: > 100 µM
TGI [7]: > 100 µM
TGI [8]: > 100 µM

COc1ccc2c(c1)c(-c1ccc(-c3cn(C)c4ccc(OC)cc34)o1)cn2C
GI50 [1]: 9.89 µM
TGI [1]: > 100 µM
GI50 [2]: 2.79 µM
TGI [2]: 10.6 µM
GI50 [9]: 10.4 µM
TGI [9]: 44 µM
GI50 [3]: 5.13 µM
TGI [3]: 31.1 µM
GI50 [4]: 29.8 µM
TGI [4]: > 100 µM
GI50 [5]: 8.51 µM
TGI [5]: 29.3 µM
GI50 [6]: 32.9 µM
TGI [6]: > 100 µM
GI50 [7]: > 100 µM
TGI [7]: > 100 µM
GI50 [8]: 3.6 µM
TGI [8]: 15 µM

Fc1ccc2c(c1)cc1ccc3cccc4ccc2c1c34
TGI [10]: > 100 µM
TGI [2]: > 100 µM
TGI [9]: > 100 µM
TGI [3]: > 100 µM
TGI [4]: > 100 µM
TGI [5]: > 100 µM
TGI [7]: > 100 µM
TGI [8]: > 100 µM

CCOC(=O)NC(=O)c1cn(C2OC(COC(=O)CCCCCCCCC(=O)OCC3OC(n4cc(C(=O)NC(=O)OCC)c(=O)[nH]c4=O)C4OC(C)(C)OC34)C3OC(C)(C)OC32)c(=O)[nH]c1=O (configuration not stated)
TGI [1]: > 100 µM
TGI [10]: > 100 µM
TGI [2]: > 100 µM
TGI [9]: > 100 µM
TGI [4]: > 100 µM
TGI [5]: > 100 µM
TGI [7]: > 100 µM
TGI [8]: > 100 µM

COc1ccc(/C=C2\CCc3ccccc3C2=O)cc1OC
TGI [1]: > 100 µM
TGI [10]: > 100 µM
TGI [2]: > 100 µM
TGI [3]: 47.2 µM
TGI [4]: > 100 µM
TGI [5]: > 100 µM
TGI [7]: > 100 µM
TGI [8]: > 100 µM

Nc1nc(CC2(O)CCCCC2)cc(-c2ccccc2)n1
TGI [1]: > 66 µM
TGI [10]: > 81 µM
TGI [2]: 54.4 µM
TGI [9]: > 57.5 µM
TGI [3]: 32.9 µM
TGI [4]: > 100 µM
TGI [5]: > 63.6 µM
TGI [7]: 43.2 µM
TGI [8]: > 91.6 µM

O=C(COC(=O)c1cccc2c(=O)c3ccccc3[nH]c12)Nc1ccc(S(=O)(=O)Nc2ncccn2)cc1
TGI [1]: > 100 µM
TGI [10]: > 100 µM
TGI [2]: > 100 µM
TGI [9]: > 100 µM
TGI [3]: > 100 µM
TGI [4]: 93.2 µM
TGI [5]: 51.7 µM
TGI [7]: > 100 µM
TGI [8]: > 100 µM

CCC(C)(C)NS(=O)(=O)c1ccccc1
TGI [1]: > 100 µM
TGI [10]: > 100 µM
TGI [2]: > 100 µM
TGI [9]: > 100 µM
TGI [5]: > 100 µM
TGI [7]: > 100 µM
TGI [8]: > 100 µM

COc1cc2ccc3c4cc(OC)c(OC(C)C)cc4c[n+](C)c3c2cc1OC
TGI [1]: > 100 µM
TGI [10]: > 100 µM
TGI [2]: > 100 µM
TGI [9]: > 100 µM
TGI [3]: 36.5 µM
TGI [4]: > 100 µM
TGI [5]: > 100 µM
TGI [7]: > 100 µM
TGI [8]: > 100 µM
